Legend:
human AR = biological target: T1, human AR (Homo sapiens, UniProt P10275); test: Competitive AR binding assay against [3H]-R1881 in transiently transfected COS-1 cells; details: Table 1; compound 13.4 μM; [3H]-R1881 1.34 nM; complete inhibition equals 100%; read-out: Inhibition of [3H]-R1881 binding at 1.34 nM ± S.D.
T1 construct: expressed in transfected cells; host or cells: COS-1
T1 sequence (P10275 1-920): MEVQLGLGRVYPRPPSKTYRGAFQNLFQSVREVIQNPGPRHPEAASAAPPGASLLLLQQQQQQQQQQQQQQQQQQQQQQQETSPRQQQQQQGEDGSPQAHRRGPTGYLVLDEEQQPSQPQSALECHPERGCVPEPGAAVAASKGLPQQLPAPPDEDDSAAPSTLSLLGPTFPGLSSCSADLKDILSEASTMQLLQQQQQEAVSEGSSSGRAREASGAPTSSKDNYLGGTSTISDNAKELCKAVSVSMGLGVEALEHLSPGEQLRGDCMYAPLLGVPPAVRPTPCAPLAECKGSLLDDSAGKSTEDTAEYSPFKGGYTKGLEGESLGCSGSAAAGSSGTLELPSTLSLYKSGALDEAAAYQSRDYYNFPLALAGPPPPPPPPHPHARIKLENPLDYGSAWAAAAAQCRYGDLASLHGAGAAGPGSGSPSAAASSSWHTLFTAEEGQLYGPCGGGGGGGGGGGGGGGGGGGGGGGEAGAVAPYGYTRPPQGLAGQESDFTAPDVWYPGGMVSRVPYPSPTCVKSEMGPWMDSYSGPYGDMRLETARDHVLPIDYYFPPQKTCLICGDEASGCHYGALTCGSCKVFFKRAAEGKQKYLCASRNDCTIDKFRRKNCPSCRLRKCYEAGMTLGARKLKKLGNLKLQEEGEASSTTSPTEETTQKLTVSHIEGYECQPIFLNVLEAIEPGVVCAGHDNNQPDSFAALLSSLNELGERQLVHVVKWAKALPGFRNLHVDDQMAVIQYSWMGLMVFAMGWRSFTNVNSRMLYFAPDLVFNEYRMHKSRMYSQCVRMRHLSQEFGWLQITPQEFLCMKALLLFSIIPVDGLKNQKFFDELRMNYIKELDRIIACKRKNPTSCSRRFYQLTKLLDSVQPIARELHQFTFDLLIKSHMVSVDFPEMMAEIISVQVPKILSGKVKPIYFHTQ
Summary of the method: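 COS-1 cells transfected 24 h with human AR vector, then after 36 h exposed 2 h at 37° C to compound at 10000-fold molar excess over 1.34 nM [3H]-R1881. Cell-bound radioactivity counted in triplicate; result given as % inhibition of labelled R1881 binding.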

Row | SMILES | inhibition at 13.4 µM (human AR) [%] | melting point [°C]
1 | COc1ccc(C2=NOC(C)(Cc3ccccc3)C2)cc1 (stereo not shown) [Example 3ab, 5-Benzyl-3-(4-methoxyphenyl)-5-methyl-4,5-dihydro-isoxazole] | 49.6 ± 2 | 97.8 to 98.6
2 | CC1(Cc2ccccc2)CC(c2ccc3ccccc3c2)=NO1 (stereo not shown) [Example 9ab, 5-Benzyl-3-naphthalen-2-yl-5-methyl-4,5-dihydro-isoxazole] | 63.7 ± 1.5 | 144.8 to 146.3
3 | Oc1ccc(C2=NOC(Cc3ccccc3)(c3ccccc3)C2)cc1 (stereo not shown) [Example 80, 5-Benzyl-3-(4-hydroxyphenyl)-5-phenyl-4,5-dihydro-isoxazole] | – | 151.3 to 153.9
4 | O=[N+]([O-])c1ccc(C2=NOC(Cc3ccccc3)(c3ccccc3)C2)cc1 (stereo not shown) [Example 17, 5-Benzyl-3-(4-nitrophenyl)-5-phenyl-4,5-dihydro-isoxazole] | – | 158 to 159.2
5 | Clc1ccc(C2=NOC(Cc3ccccc3)(c3ccccc3)C2)cc1 (stereo not shown) [Example 16, 5-Benzyl-3-(4-chlorophenyl)-5-phenyl-4,5-dihydro-isoxazole] | – | 120.3 to 122.1
6 | Fc1ccccc1C1=NOC(Cc2ccccc2)(c2ccccc2)C1 (stereo not shown) [Example 15ab, 5-Benzyl-3-(2-fluorophenyl)-5-phenyl-4,5-dihydro-isoxazole] | 49.5 ± 4.3 | 134.3 to 135.2
7 | COc1cccc(C2=NOC(Cc3ccccc3)(c3ccccc3)C2)c1 (stereo not shown) [Example 13, 5-Benzyl-5-phenyl-3-(3-methoxyphenyl)-4,5-dihydro-isoxazole] | – | 94.4 to 95.2

— patent publication US9278942B2, “Non-steroidal compounds as androgen receptor modulators” (FLX Discoveries Oy, priority 2011, dated 2016)
